# How the values were obtained:
# Type in all cases: cell-based, human
# PC-3 cells = assay: Apoptosis analysis (DNA fragmentation ELISA, PARP cleavage); details: 1% FBS-containing medium
# Experimental: Apoptosis analysis Two methods were used to assess drug-induced apoptotic cell death: detection of DNA fragmentation by the Cell Death Detection ELISA kit (Roche Diagnostics. Mannheim, Germany) and Western blot analysis of poly-(ADP-ribose)polymerase (PARP) cleavage. […] In brief, 4×10^5 PC-3 cells were cultured in a T-25 flask for 24 h before treatment. Cells were treated with the DMSO vehicle or the test agent at the indicated concentrations for 6-24 h, collected, and cell lysates equivalent to 2×10^3 PC-3 cells were used in the ELISA. For the PARP cleavage assay, drug-treated cells were collected 4-8 h post-treatment, washed with ice-cold PBS, and resuspended in lysis buffer containing 20 mM Tris-HCl, pH 8, 137 mM NaCl, 1 mM CaCl2, 10% glycerol, 1% Nonidet P-40, 0.5% deoxycholate, 0.1% SDS, 100 μM 4-(2-aminoethyl)benzenesulfonyl fluoride, leupeptin at 10 μg/mL, and aprotinin at 10 μg/mL. Soluble cell lysates were collected after centrifugation at 10,000 g for 5 min. Equivalent amounts of proteins (60-100 μg) from each lysate were resolved in 8% SDS-polyacrylamide gels. Bands were transferred to nitrocellulose membranes, and analyzed by immunoblotting with anti-PARP antibody.
# SK-OV-3 = assay: NCI DTP cell line screen (SRB), Ovarian Cancer
# Experimental: (§1) Screening of compounds 70 and 71 against several cancer cell lines The human tumor cell lines of the cancer screening panel are grown in RPMI 1640 medium containing 5% fetal bovine serum and 2 mM L-glutamine. For a typical screening experiment, cells are inoculated into 96 well microtiter plates in 100 μL at plating densities ranging from 5,000 to 40,000 cells/well depending on the doubling time of individual cell lines. After cell inoculation, the microtiter plates are incubated at 37° C., 5% CO2, 95% air and 100% relative humidity for 24 h prior to addition of experimental drugs.
# (§2) After 24 h, two plates of each cell line are fixed in situ with TCA, to represent a measurement of the cell population for each cell line at the time of drug addition (Tz). Experimental drugs are solubilized in dimethyl sulfoxide at 400-fold the desired final maximum test concentration and stored frozen prior to use. At the time of drug addition, an aliquot of frozen concentrate is thawed and diluted to twice the desired final maximum test concentration with complete medium containing 50 μg/ml gentamicin. Additional four, 10-fold or ½ log serial dilutions are made to provide a total of five drug concentrations plus control. Aliquots of 100 μl of these different drug dilutions are added to the appropriate microtiter wells already containing 100 μl of medium, resulting in the required final drug concentrations.
# (§3) Following drug addition, the plates are incubated for an additional 48 h at 37° C., 5% CO2, 95% air, and 100% relative humidity. For adherent cells, the assay is terminated by the addition of cold TCA. Cells are fixed in situ by the gentle addition of 50 μl of cold 50% (w/v) TCA (final concentration, 10% TCA) and incubated for 60 minutes at 4° C. The supernatant is discarded, and the plates are washed five times with tap water and air dried. Sulforhodamine B (SRB) solution (100 μl) at 0.4% (w/v) in 1% acetic acid is added to each well, and plates are incubated for 10 minutes at room temperature. After staining, unbound dye is removed by washing five times with 1% acetic acid and the plates are air dried. Bound stain is subsequently solubilized with 10 mM trizma base, and the absorbance is read on an automated plate reader at a wavelength of 515 nm. For suspension cells, the methodology is the same except that the assay is terminated by fixing settled cells at the bottom of the wells by gently adding 50 μl of 80% TCA (final concentration, 16% TCA). Using the seven absorbance measurements [time zero, (Tz), control growth, (C), and test growth in the presence of drug at the five concentration levels (Ti)], the percentage growth is calculated at each of the drug concentrations levels. Percentage growth inhibition is calculated as: [(Ti−Tz)/(C−Tz)]×100 for concentrations for which Ti>/=Tz [(Ti−Tz)/Tz]×100 for concentrations for which Ti<Tz
# (§4) Three dose response parameters are calculated for each experimental agent. […] The drug concentration resulting in total growth inhibition (TGI) is calculated from Ti=Tz. […] Values are calculated for each of these three parameters if the level of activity is reached; however, if the effect is not reached or is exceeded, the value for that parameter is expressed as greater or less than the maximum or minimum concentration tested.
# (§5) The methods described were used to test compounds 70 and 71 on a panel of sixty cell lines under a screening service provided by the Developmental Therapeutics Program at the National Institutes of Health. Shown in FIG. 1C are 1, RPMI-8226 leukemia cells; 2; NCI-H322M non-small cell lung cancer cells; 3, HT29 colon cancer cells; 4, U251 CNS cancer cells; 5, SK-MEL-28 melanoma cancer cells; 6, SK-OV-3 ovarian cancer cells; 7, RXF 393 renal cancer cells; 8, PC-3 prostate cancer cells; 9, MDA-MB-231 breast cancer cells.
# SK-MEL-5 = assay: NCI DTP cell line screen (SRB), Melanoma; details: for TGI: in M (unit assumed)
# Experimental: as §1, §2, §3, §4, §5
# NCI-H226 = assay: NCI DTP cell line screen (SRB), Non-Small Cell Lung Cancer
# Experimental: as §1, §2, §3, §4, §5
SMILES,apoptotic death in PC-3 cells (DNA fragmentation and PARP cleavage) (PC-3 cells),TGI (SK-OV-3),Percent Growth (SK-OV-3; Log10 Concentration −4.0),Percent Growth (SK-OV-3; Log10 Concentration −5.0),Percent Growth (SK-OV-3; Log10 Concentration −6.0),Percent Growth (SK-OV-3; Log10 Concentration −7.0),Percent Growth (SK-OV-3; Log10 Concentration −8.0),Percent Growth (SK-MEL-5; Log10 Concentration −4.0),Percent Growth (SK-MEL-5; Log10 Concentration −5.0),Percent Growth (SK-MEL-5; Log10 Concentration −6.0),Percent Growth (SK-MEL-5; Log10 Concentration −7.0),Percent Growth (SK-MEL-5; Log10 Concentration −8.0),TGI (SK-MEL-5),other results
"N=C(N)Nc1ccc(-n2nc(C(F)(F)F)cc2-c2ccc3c(ccc4ccccc43)c2)cc1 [Compound 71, 4-[5-(2-Phenanthrenyl)-3-(trifluoromethyl)-1H-pyrazol-1-yl]-phenyl-guanidine]",induced apoptotic death in PC-3 cells in 1% FBS-containing medium in a dose-dependent manner,2.94E−06,−30%,−85%,75%,91%,93%,−34%,−74%,116%,111%,97%,4.07E−06,GI50 (SK-OV-3): 1430 nM; Mean Optical Densities (SK-OV-3; Log10 Concentration −4.0): 0.278; Mean Optical Densities (SK-OV-3; Log10 Concentration −5.0): 0.062; Mean Optical Densities (SK-OV-3; Log10 Concentration −6.0): 1.093; Mean Optical Densities (SK-OV-3; Log10 Concentration −7.0): 1.245; Mean Optical Densities (SK-OV-3; Log10 Concentration −8.0): 1.261; GI50 (SK-MEL-5): 2220 nM; Mean Optical Densities (SK-MEL-5; Log10 Concentration −4.0): 0.363; Mean Optical Densities (SK-MEL-5; Log10 Concentration −5.0): 0.143; Mean Optical Densities (SK-MEL-5; Log10 Concentration −6.0): 1.812; Mean Optical Densities (SK-MEL-5; Log10 Concentration −7.0): 1.762; Mean Optical Densities (SK-MEL-5; Log10 Concentration −8.0): 1.611
"NCC(=O)Nc1ccc(-n2nc(C(F)(F)F)cc2-c2ccc3c(ccc4ccccc43)c2)cc1 [Compound 70, 2-Amino-N-{4-[5-(2-phenanthrenyl)-3-(trifluoromethyl)-1H-pyrazol-1-yl]-phenyl}-acetamide]",induced apoptotic death in PC-3 cells in 1% FBS-containing medium in a dose-dependent manner,2.96E−06,−24%,−79%,71%,98%,91%,−34%,−75%,69%,88%,91%,3.02E−06,Percent Growth (NCI-H226; Log10 Concentration −4.0): −48%; Percent Growth (NCI-H226; Log10 Concentration −5.0): −58%; Percent Growth (NCI-H226; Log10 Concentration −6.0): 59%; Percent Growth (NCI-H226; Log10 Concentration −7.0): 98%; Percent Growth (NCI-H226; Log10 Concentration −8.0): 100%; TGI (NCI-H226; in M (unit assumed)): 3.21E−06

# — US8541460B2, “PDK-1/Akt signaling inhibitors” (The Ohio State University, priority 2003, dated 2013)
